Patent US20220040255A1, “CHEMOTHERAPEUTIC REMODELING OF THE GUT MICROBIOME” (THE SCRIPPS RESEARCH INSTITUTE, priority 2018, published 2022)

Each molecule was assayed on gut microbiota from cecum of LDLr−/− mice (assay: in vitro en masse screening assay (cecum culture, 16S rRNA sequencing)). Conditions: Chm- 2 μg.
Format: cell-based
Description: We have established the following in vitro compound screening protocol for en masse gut microbiome remodeling. We obtain fresh gut microbiome content from LDLr^-/- mice conditioned for at least two weeks on WD by surgically removing cecum under anaerobic conditions. These samples are then mixed with growth media, distributed in 96-well plates, and incubated overnight in the presence of the test peptides. The activity and selectivity of each peptide for remodeling the gut microbiota community was assessed en masse by 16S rRNA sequencing of each well. A number of challenges had to be addressed in developing this protocol, including inoculum handling, choice of growth media, assay duration, etc. Our current assay culture condition maintains 50 bacterial genera (overnight culture), which is fairly representative of the 67 genera found in the uncultured community (Table 2). We used a distance scoring algorithm for a more refined compound selection, in which peptides that remodel the microbiota community most completely from the dysfunctional state (WD fed) toward the functional state (CHD fed) are scored higher. Briefly, we first eliminate cyclic D,L-α-peptides that have broad-spectrum antibacterial activity (inhibit >95% of growth of ≥25% of species in the community). The remaining compounds are then ranked based on how well they suppressed the bacterial species that grew in abundance in WD-fed mice. […] Among these, 40 genera decreased while 14 genera increased in abundance by WD feeding. Within the increased 11 genera, there were 19 bacterial species that were also present in our in vitro culture system. Accordingly, compounds were scored highly when they reduced the levels of 19 bacterial species (lowest summed differences in relative abundance) that were increased by WD feeding to be more similar to their levels in a CHD-fed microbiome (see Table 3 for peptide ranking). Based on these analyses, we chose two peptides for further in vivo validation and efficacy studies: the cationic peptide 1, […] NO:1), and the neutral peptide 11, […] NO:11), which ranked high within their respective peptide clusters. In vitro cecum culture and peptide screening. We screened a number of parameters to optimize the in vitro culture condition for maximal bacterial diversity in liquid culture, including a survey of several different growth media, dilution factors for plate inoculation, and incubation times; further details of the development of this in vitro screen will be reported elsewhere. Female LDLr^-/- mice (8-10 weeks of age) were fed a WD for two weeks. Cecum harvest and all assay steps were performed under anaerobic conditions (Coy Laboratory anaerobic chamber). Cecum contents from three mice were pooled for the assay to provide enough material and to minimize the individual variation in gut microbiome. Cecum contents were suspended in PBS (1.5 ml PBS per 100 mg of cecum content). The mixture was vortexed for 5 min and the supernatant was transferred to a new tube. The cecum content mixture was further diluted in Chopped Meat Carbohydrate Broth (BD 297307) for in vitro peptide screening. […] The concentration of peptide stock in DMSO was calculated based on A280 measurement. For each peptide, an initial 20 mM stock was made in DMSO and diluted to 1 mM in 10% sucrose. From that, a 0.64 mM peptide dilution in 10% sucrose was prepared, and each peptide was further diluted into the assay for peptide screening at two concentrations (64 μM and 16 μM). Bacterial DNA was harvested after 24-hour peptide treatment and isolated with Microbial DNA isolation kit (Mo Bio) following the manufacturer's instructions. 16S rRNA gene sequencing and processing. PCR amplicons of the V3-V4 16S rRNA region were amplified and sequenced using an Illumina MiSeq platform. […]

With `O=C(N[C@H](CO)[C@H](O)c1ccc([N+](=O)[O-])cc1)C(Cl)Cl` [Chm, chloramphenicol, reference compound] the “ranked distance to chow” value was 4.

Same assay, conditions: Chm- 8 μg

For `O=C(N[C@H](CO)[C@H](O)c1ccc([N+](=O)[O-])cc1)C(Cl)Cl` [Chm, chloramphenicol, reference compound], the “ranked distance to chow” value was 24.

Same assay, conditions: ranking in remodeling WD gut microbiota toward CHD microbiota composition

Point of comparison: c[wLwSeQeO] [wLwSeQsO], “ranked distance to chow” value 16. Against it:
- c[FwHlYoHq] — higher, 18
- c[LlWhQk] — lower, 5
- c[WlLlKkKs] [WllLlKkKs] — higher, 20
- c[WlWlWkSk] — lower, 1
- c[WwLlHsKk — lower, 3
- c[WwQoHdKt] — lower, 15
- c[YlWyKhAe] — higher, 23
- c[YlYlYkSo] — lower, 13
- c[YwElYsKq] — higher, 17
- c[fWwYqHhQ] — higher, 25
- c[lFlAlKhK] — lower, 8
- c[lLwHoK] — lower, 7
- c[wFkSkSkS] — higher, 19
- c[wLeLwKsK] — lower, 9
- c[wLfKwKkK] — lower, 6
- c[wLhLwKrK] — lower, 11
- c[wLlEeKkN] — higher, 21
- c[wLlWkKkS] — lower, 10
- c[wLwSeQhK] — higher, 22
- c[wWwKsKsK] — lower, 12
